Reference: ChEMBL document CHEMBL1201862, “PubChem BioAssay data set” (2004)
Active and inactive are the calls of the source.

Experiments:
[1] = biological target: Acyl-homoserine lactone acylase PvdQ (Pseudomonas aeruginosa (strain LESB58), UniProt Q9I194); assay: PvdQ acylase enzyme activity blockers – biochemical, fluorescence, plate reader and imaging, cherry-picks, dose response (AID 493231)
[2] = biological target: Glyceraldehyde-3-phosphate dehydrogenase (Homo sapiens, UniProt P04406)
[3] = biological target: T1, Tyrosine-protein phosphatase non-receptor type 7 (Homo sapiens, UniProt P35236); type: functional
T1 sequence (P35236 whole entry): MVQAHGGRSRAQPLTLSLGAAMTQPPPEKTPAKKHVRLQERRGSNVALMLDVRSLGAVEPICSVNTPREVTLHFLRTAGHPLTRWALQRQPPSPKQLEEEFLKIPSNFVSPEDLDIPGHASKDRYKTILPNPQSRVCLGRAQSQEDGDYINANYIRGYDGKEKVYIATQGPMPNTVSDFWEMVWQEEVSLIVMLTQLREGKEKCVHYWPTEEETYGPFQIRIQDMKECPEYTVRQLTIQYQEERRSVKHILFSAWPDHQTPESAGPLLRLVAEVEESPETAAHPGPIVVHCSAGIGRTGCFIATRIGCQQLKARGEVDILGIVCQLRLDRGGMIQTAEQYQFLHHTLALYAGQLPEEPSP

[4] = biological target: T2, Dual specificity protein phosphatase 6 (Rattus norvegicus, UniProt Q64346)
T2 sequence (Q64346 whole entry): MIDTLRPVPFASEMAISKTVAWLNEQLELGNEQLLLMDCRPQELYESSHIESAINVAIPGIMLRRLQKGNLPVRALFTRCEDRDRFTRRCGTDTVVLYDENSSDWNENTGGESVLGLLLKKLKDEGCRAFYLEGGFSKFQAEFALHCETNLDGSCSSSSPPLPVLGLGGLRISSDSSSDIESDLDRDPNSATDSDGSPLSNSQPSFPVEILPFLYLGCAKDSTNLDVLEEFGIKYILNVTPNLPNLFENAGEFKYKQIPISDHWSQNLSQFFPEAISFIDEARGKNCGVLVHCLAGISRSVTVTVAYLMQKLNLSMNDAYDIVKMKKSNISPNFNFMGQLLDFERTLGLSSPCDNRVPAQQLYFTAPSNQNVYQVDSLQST

[5] = biological target: T2, Dual specificity protein phosphatase 6; type: functional
[6] = biological target: Heat shock cognate 71 kDa protein (Homo sapiens, UniProt P11142); assay: In Vitro Hsc70 Dose Response Fluorescence Polarization Assay. [Related pubchem assays: 1072 ]
[7] = biological target: Heat shock 70 kDa protein 1A (Homo sapiens, UniProt P0DMV8); assay: inhibition of Hsp70 binding activity – biochemical, fluorescence polarization, SAR follow-up (AID 1072)
[8] = alpha-synuclein stem-loop translation blockers – luminescence, H4 neuroglioblastoma cells, dose confirmation, confirmation (AID 2454); type: functional, cell-based;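 further: H4 neuroglioblastoma cells carrying an alpha-synuclein 5'UTR luciferase reporter; potency for inhibition of the luciferase signal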
A-375 [9] = assay: MITF: Counter assay: A375 proliferation Measured in Cell-Based System Using Plate Reader - 2084-03_Inhibitor_Dose_DryPowder_Activity. [Related pubchem assays (depositor defined):AID488944]; type: functional; settings: Homo sapiens
BJ = assay: cells; type: functional, cell-based; settings: Homo sapiens
[10] = biological target: T3, Microphthalmia-associated transcription factor (Homo sapiens, UniProt O75030); assay: reducers of TRPM1 reporter luminescence, concentration series – cell-based, SK-MEL-5, cherry-picked, set 3, MITF inhibitor project, dose response (AID 493073); type: functional;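 further: SK-MEL-5 melanoma cells with luciferase driven by the MITF target TRPM1 promoter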
T3 sequence (O75030 whole entry): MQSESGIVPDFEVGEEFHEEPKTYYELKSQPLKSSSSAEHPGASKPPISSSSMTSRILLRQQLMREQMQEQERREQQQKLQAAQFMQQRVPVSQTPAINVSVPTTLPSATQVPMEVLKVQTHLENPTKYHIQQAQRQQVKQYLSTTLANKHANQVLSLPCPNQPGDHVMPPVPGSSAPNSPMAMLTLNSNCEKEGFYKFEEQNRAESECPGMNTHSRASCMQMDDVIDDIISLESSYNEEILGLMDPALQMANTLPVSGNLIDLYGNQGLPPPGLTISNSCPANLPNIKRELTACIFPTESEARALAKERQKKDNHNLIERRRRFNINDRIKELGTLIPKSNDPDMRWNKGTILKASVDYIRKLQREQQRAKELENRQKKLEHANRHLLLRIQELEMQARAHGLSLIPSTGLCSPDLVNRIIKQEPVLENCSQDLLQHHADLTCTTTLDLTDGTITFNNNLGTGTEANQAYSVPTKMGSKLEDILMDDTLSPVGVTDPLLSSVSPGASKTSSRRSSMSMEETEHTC

[11] = HEK-293T viability loss after treatment – luminescence, T-cell screen hits, cytotoxicity control for TCR NF-kB inhibitor project, dose response (AID 489026); type: functional, cell-based;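 further: cells exposed to compound about 14 hours before the viability readout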
[12] = luciferase reporter signal reduction – luminescence, H4-C neuroglioblastoma cells, dose response (AID 2458); type: functional, cell-based;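 further: H4 neuroglioblastoma cells stably carrying a luciferase reporter gene fusion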
A-375 [13] = assay: proliferation inhibition in MITF-low A375 cells – cell-based, cherry-pick samples, set 2, counter-screen for MITF modulator project, dose response (AID 540335); type: functional; settings: Homo sapiens
HEK293 [14] = assay: Cytotoxicity assay in HEK293 cells. [Related pubchem assays (depositor defined):AID1266, AID1269, AID1270, AID1271, AID1280, AID1281, AID1282, AID1283, AID1287, AID1289, AID1290, AID1291, AID1292, AID1293, AID1294, AID1295, AID1299, AID1302, AID1364, AID1365, AID1366, AID1367, AID1369, AID1370, AID1371, AID1372, AID1373, AID1374, AID1375, AID1384 …; type: functional, cell-based; settings: Homo sapiens
cells = type: functional, cell-based
[15] = luciferase reporter signal suppression in cells – H4 neuroglioma cells, luminescence, dose response (AID 1990); type: functional, cell-based
HEK293 [16] = assay: PMA/Ionomycin-induced IL-8 production in HEK293- NF-kB-Luc stable cells. [Related pubchem assays: 1299, 1295, 1375, 1287, 1281, 1293, 1291, 1289, 1280, 465, 1364, 1282, 1372, 1365, 1367, 1366, 1266, 1269, 1373, 1292, 1290, 1302, 1371, 1283, 1271, 1294, 1374, 1368, 1369 ]; type: functional, cell-based; settings: Homo sapiens
HEK293 [17] = assay: TNF Induced NF-kB Luciferase in 293-NF-kB-Luc Stable Cells. [Related pubchem assays: 1266, 1299, 1269, 1373, 1292, 1290, 1302, 1371, 1283, 1270, 1295, 1271, 1375, 1294, 1374, 1281, 1293, 1291, 1289, 1280, 465, 1368, 1364, 1282, 1372, 1365, 1369, 1370, 1367, 1366 ]; type: functional, cell-based; settings: Homo sapiens
[18] = biological target: Luciferin 4-monooxygenase (Photinus pyralis, UniProt P08659); assay: In vitro luciferase assay using purified luciferase. [Related pubchem assays: 1299, 1270, 1295, 1375, 1287, 1281, 1293, 1291, 1289, 1280, 465, 1364, 1282, 1372, 1365, 1370, 1367, 1366, 1266, 1373, 1292, 1290, 1302, 1371, 1283, 1271, 1294, 1374, 1368, 1369 ]
[19] = alpha-synuclein stem-loop luciferase translation blockers – H4 neuroglioma cells, luminescence, confirmation (AID 1988); type: functional, cell-based
HEK293 [20] = assay: PMA/Ionomycin induced NF-kB luciferase assay in 293- NF-kB-Luc stable cells. [Related pubchem assays: 1299, 1270, 1295, 1375, 1287, 1281, 1293, 1291, 1289, 1280, 465, 1364, 1282, 1372, 1365, 1370, 1367, 1366, 1269, 1373, 1292, 1290, 1302, 1371, 1283, 1271, 1294, 1374, 1368, 1369 ]; type: functional, cell-based; settings: Homo sapiens
Cytochrome P450 2C9 = Cytochrome P450 2C9 (Homo sapiens, UniProt P11712); settings: Potency
Cytochrome P450 2D6 = Cytochrome P450 2D6 (Homo sapiens, UniProt P10635); assay: qHTS Assay for Inhibitors and Substrates of Cytochrome P450 2D6. [Related pubchem assays: 410 ]; type: ADME; settings: read-out: Potency
Cytochrome P450 2C19 = Cytochrome P450 2C19 (Homo sapiens, UniProt P33261); assay: qHTS Assay for Inhibitors and Substrates of Cytochrome P450 2C19. [Related pubchem assays: 410 ]; type: ADME; settings: read-out: Potency
Chain of Cytochrome P450 2C19 (P33261 whole entry): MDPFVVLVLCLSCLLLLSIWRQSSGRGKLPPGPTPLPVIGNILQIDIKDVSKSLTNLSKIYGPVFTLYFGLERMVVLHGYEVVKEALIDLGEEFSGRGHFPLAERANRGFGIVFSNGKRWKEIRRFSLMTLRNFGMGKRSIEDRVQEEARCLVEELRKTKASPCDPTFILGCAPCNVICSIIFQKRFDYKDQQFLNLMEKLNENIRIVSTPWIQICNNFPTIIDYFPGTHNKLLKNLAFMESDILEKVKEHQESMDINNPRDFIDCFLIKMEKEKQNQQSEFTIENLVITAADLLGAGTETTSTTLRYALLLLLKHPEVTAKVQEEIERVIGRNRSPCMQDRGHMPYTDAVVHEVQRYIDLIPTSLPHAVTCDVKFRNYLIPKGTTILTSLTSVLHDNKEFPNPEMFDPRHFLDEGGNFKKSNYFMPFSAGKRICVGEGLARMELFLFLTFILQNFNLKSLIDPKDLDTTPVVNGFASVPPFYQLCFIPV

Chain of Cytochrome P450 2C9 (P11712 whole entry): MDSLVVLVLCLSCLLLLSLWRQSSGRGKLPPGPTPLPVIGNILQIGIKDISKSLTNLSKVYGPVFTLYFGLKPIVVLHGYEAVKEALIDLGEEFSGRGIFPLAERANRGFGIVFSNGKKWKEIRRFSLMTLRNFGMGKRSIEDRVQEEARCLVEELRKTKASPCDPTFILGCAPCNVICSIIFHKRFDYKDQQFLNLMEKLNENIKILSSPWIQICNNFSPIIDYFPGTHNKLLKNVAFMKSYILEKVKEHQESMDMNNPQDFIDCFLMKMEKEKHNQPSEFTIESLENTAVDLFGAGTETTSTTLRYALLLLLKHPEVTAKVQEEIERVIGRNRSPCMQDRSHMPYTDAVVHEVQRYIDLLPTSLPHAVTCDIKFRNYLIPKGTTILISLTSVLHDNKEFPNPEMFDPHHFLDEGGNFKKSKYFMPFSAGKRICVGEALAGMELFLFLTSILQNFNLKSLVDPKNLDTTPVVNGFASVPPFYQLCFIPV
Chain of Luciferin 4-monooxygenase (P08659 whole entry): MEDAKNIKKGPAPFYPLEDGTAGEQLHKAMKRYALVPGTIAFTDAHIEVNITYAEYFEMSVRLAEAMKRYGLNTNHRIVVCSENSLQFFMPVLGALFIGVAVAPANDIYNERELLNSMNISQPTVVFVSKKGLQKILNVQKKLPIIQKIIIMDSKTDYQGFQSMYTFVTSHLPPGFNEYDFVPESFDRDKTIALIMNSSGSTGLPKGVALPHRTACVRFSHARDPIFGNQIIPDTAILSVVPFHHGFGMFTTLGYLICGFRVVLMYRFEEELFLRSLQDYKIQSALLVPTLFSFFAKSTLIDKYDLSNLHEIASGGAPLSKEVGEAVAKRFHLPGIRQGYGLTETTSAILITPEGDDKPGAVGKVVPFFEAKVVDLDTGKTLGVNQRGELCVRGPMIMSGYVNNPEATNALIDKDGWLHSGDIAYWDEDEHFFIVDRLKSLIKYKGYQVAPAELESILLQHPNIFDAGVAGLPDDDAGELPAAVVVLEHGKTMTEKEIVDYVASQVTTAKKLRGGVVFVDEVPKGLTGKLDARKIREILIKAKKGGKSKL
Chain of Cytochrome P450 2D6 (P10635 whole entry): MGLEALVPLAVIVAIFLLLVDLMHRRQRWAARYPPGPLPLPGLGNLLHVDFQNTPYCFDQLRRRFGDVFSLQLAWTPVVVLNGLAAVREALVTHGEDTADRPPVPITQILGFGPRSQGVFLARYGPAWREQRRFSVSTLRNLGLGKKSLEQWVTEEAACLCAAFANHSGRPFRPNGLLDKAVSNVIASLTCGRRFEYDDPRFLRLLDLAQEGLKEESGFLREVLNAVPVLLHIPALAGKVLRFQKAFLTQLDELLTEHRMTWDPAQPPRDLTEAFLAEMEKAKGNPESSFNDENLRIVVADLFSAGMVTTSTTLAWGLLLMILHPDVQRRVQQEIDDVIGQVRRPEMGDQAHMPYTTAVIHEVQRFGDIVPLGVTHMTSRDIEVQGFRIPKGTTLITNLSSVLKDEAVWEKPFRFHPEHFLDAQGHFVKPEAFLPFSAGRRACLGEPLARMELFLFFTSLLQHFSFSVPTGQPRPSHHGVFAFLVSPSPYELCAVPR
Chain of Glyceraldehyde-3-phosphate dehydrogenase (P04406 whole entry): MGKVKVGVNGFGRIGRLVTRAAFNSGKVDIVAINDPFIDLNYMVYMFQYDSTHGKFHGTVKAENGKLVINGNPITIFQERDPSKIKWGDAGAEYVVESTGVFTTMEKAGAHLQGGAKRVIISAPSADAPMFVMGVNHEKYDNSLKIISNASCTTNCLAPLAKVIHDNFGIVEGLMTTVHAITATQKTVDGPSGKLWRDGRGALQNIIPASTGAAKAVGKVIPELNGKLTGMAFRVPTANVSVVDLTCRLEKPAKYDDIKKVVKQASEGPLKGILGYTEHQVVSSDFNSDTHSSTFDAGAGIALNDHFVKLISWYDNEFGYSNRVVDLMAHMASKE
Chain of Heat shock 70 kDa protein 1A (P0DMV8 whole entry): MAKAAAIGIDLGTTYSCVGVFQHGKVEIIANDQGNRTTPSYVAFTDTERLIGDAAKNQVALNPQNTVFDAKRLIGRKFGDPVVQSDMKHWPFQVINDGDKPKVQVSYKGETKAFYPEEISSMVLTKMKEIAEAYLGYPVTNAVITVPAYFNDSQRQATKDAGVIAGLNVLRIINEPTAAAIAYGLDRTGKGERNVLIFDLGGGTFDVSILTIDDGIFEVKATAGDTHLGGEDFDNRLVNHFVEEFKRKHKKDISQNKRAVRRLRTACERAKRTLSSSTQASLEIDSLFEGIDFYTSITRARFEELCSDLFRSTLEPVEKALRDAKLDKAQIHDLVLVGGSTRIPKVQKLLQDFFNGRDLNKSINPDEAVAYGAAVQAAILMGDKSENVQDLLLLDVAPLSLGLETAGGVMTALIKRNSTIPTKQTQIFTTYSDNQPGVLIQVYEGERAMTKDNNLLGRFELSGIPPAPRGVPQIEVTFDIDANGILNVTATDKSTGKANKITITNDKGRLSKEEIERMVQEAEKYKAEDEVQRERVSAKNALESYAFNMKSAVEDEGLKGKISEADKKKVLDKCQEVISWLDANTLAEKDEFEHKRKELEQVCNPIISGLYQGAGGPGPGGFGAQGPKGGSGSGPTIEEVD
Chain of Acyl-homoserine lactone acylase PvdQ (Q9I194 24-193 limits assumed): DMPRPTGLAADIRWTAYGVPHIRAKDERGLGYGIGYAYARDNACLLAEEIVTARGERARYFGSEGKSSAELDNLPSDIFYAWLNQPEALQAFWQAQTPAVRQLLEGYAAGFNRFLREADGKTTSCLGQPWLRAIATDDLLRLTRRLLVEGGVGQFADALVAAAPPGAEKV
Chain of Acyl-homoserine lactone acylase PvdQ (Q9I194 217-762 limits assumed): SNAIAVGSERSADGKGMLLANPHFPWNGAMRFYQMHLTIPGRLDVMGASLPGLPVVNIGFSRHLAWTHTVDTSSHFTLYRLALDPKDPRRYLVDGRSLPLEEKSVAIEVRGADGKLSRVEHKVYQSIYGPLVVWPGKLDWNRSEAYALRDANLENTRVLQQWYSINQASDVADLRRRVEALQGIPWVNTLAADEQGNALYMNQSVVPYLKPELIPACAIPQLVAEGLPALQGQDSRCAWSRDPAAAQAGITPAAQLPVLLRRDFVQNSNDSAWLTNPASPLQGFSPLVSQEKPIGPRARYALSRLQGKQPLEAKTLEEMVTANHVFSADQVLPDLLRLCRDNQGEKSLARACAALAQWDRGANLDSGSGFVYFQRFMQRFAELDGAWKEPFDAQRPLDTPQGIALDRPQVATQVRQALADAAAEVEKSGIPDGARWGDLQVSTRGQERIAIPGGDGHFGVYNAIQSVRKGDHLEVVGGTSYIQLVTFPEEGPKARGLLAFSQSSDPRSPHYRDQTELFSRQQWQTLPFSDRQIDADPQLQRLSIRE
Chain of Heat shock cognate 71 kDa protein (P11142 whole entry): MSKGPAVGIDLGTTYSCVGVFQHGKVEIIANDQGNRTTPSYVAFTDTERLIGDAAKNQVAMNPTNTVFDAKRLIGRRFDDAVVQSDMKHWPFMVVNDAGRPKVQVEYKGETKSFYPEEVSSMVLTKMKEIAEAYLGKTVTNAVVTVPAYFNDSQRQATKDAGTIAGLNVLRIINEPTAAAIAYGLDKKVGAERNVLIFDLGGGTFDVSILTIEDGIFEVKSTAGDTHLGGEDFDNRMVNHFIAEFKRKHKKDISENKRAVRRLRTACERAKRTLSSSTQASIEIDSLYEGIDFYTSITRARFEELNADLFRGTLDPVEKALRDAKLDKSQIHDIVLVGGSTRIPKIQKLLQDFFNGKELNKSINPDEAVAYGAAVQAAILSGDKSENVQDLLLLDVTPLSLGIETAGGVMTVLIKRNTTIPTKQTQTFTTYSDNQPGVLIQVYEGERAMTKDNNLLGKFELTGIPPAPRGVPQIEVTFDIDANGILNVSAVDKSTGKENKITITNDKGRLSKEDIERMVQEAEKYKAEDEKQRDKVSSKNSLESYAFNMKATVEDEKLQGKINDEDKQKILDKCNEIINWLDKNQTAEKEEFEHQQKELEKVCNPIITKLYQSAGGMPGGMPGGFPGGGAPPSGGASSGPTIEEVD

In the case of `N#CC(c1ccc(Cl)cc1)c1cccc(Cl)n1` (stereo not given), the AC50 [1] is reported as 0.5 µM (active).
For `NC(=O)c1cccc2c1NC(C(=O)O)C1CC=CC21` (stereo not given), the IC50 [2] was > 100 µM (not active), the IC50 [3] was 3 µM (active) and the IC50 [4] was 58.6 µM (active). For the same compound, the IC50 [5] was 55.5 µM (active), the IC50 [6] was 86 µM (active) and the IC50 [7] was 10.4 µM (active).
For `COc1cc(C2C(C#N)=C(N)Oc3cc(N(C)C)ccc32)cc2c1OCO2` (stereo not given), the EC50 [8] was 0.106 µM (active), the AC50 (A-375 [9]) was > 35 µM (active) and the EC50 (BJ) was 121 µM (inconclusive). For the same compound, the AC50 [10] was 0.601 µM (active), the IC50 [11] was > 80 µM (inactive) and the EC50 [12] was 0.096 µM (active). For the same compound, the AC50 (A-375 [13]) was > 35 µM (active), the EC50 (HEK293 [14]) was > 8 µM (inactive) and the EC50 (cells) was 0.116 µM (active). The EC50 [15] was < 0.1 µM (active), the EC50 (HEK293 [16]) was > 8 µM (not active) and the EC50 (HEK293 [17]) was > 8 µM (not active). The EC50 [18] was > 8 µM (not active), the EC50 [19] was < 0.1 µM (active) and the EC50 (HEK293 [20]) was 2.18 µM (active).
In the case of `CC[C@H]1C(=O)OC[C@@H]1Cc1cncn1C`, the AC50 (Cytochrome P450 2C9) is reported as 12.6 µM (inconclusive).
In the case of `COc1ccc2oc(-c3ccccc3)c(OC)c(=O)c2c1` [3,6-DIMETHOXYFLAVONE], the AC50 (Cytochrome P450 2D6) is reported as 39.8 µM (inconclusive) and the AC50 (Cytochrome P450 2C19) is reported as 10 µM (inconclusive).
